This passage reports IC50 results from patent publication US8304419B2, “Chemical compounds” (priority 2007, dated 2012).

Counter-ions that a name gives are not always drawn.

The test system of the first assay is HIV wild type (WTRVA). Kind of assay: HeLa cell assay, wild type virus (WTRVA). It counts as cell-based, HIV-1. The note with it: Human immunodeficiency virus 1, HeLa, HeLa cell assay; read-out: IC50 against WTRVA. Set-up: scale not given here.
On to `Cc1nc(Br)c(C(=O)NCc2cc(Br)c(Br)c(Oc3cc(Cl)cc(C#N)c3)c2F)[nH]1` [Example 234, 4-bromo-N-({4,5-dibromo-3-[(3-chloro-5-cyanophenyl)oxy]-2-fluorophenyl}methyl)-2-methyl-1H-imidazole-5-carboxamide trifluoroacetate], for which the IC50 was under 10 nM.
Regarding `Cc1nc(Br)c(C(=O)NCc2ccc(Br)c(Oc3cc(Cl)cc(C#N)c3)c2F)[nH]1` [Example 233, 4-bromo-N-({4-bromo-3-[(3-chloro-5-cyanophenyl)oxy]-2-fluorophenyl}methyl)-2-methyl-1H-imidazole-5-carboxamide], the IC50 is under 10 nM.
As to `Cc1nc(Cl)c(C(=O)NCc2ccc(C(F)F)c(Oc3cc(Cl)cc(C#N)c3)c2F)[nH]1` [Example 254, 4-chloro-N-{[3-[(3-chloro-5-cyanophenyl)oxy]-4-(difluoromethyl)-2-fluorophenyl]methyl}-2-methyl-1H-imidazole-5-carboxamide], the IC50 is under 10 nM.
In the case of `N#Cc1cc(CN2CCOCC2)cc(Oc2c(Cl)ccc(CNC(=O)c3[nH]cnc3Cl)c2F)c1` [Example 383, 4-chloro-N-[(4-chloro-3-{[3-cyano-5-(4-morpholinylmethyl)phenyl]oxy}-2-fluorophenyl)methyl]-1H-imidazole-5-carboxamide], the IC50 is under 10 nM.
Same read-out and setting: for `N#C/C=C/c1cc(Cl)cc(Oc2c(Cl)ccc(CNC(=O)c3[nH]cnc3Cl)c2F)c1` [Example 291, 4-chloro-N-{[4-chloro-3-({3-chloro-5-[(E)-2-cyanoethenyl]phenyl}oxy)-2-fluorophenyl]methyl}-1H-imidazole-5-carboxamide] the value was under 10 nM; for `Cc1nc(Cl)c(C(=O)NCc2ccc(Cl)c(Oc3cc(C#N)cc(C(F)F)c3)c2F)[nH]1` [Example 300, 4-chloro-N-[(4-chloro-3-{[3-cyano-5-(difluoromethyl)phenyl]oxy}-2-fluorophenyl)methyl]-2-methyl-1H-imidazole-5-carboxamide trifluoroacetate], under 10 nM; for `N#Cc1cc(Cl)cc(Oc2c(Cl)ccc(CNC(=O)c3[nH]c(N)nc3Cl)c2F)c1` [Example 230, 2-amino-4-chloro-N-({4-chloro-3-[(3-chloro-5-cyanophenyl)oxy]-2-fluorophenyl}methyl)-1H-imidazole-5-carboxamide trifluoroacetate], under 10 nM.
For `Cc1nc(Cl)c(C(=O)NCc2ccc(Cl)c(Oc3cc(C#N)cc(C4CC4)c3)c2F)[nH]1` [Example 308, 4-chloro-N-({4-chloro-3-[(3-cyano-5-cyclopropylphenyl)oxy]-2-fluorophenyl}methyl)-2-methyl-1H-imidazole-5-carboxamide trifluoroacetate], the IC50 is under 10 nM.
For `Cc1cc(C#N)cc(Oc2c(Cl)ccc(CNC(=O)c3[nH]c(C)nc3Cl)c2F)c1` [Example 305, 4-chloro-N-({4-chloro-3-[(3-cyano-5-methylphenyl)oxy]-2-fluorophenyl}methyl)-2-methyl-1H-imidazole-5-carboxamide trifluoroacetate], the IC50 was under 10 nM.
`Cc1nc(Cl)c(C(=O)NCc2ccc(Br)c(Oc3cc(Cl)cc(C#N)c3)c2F)[nH]1` [Example 231, N-({4-bromo-3-[(3-chloro-5-cyanophenyl)oxy]-2-fluorophenyl}methyl)-4-chloro-2-methyl-1H-imidazole-5-carboxamide trifluoroacetate]: the IC50 is under 10 nM.
With `CNc1nc(Cl)c(C(=O)NCc2ccc(Cl)c(Oc3cc(Cl)cc(C#N)c3)c2F)[nH]1` [Example 363, 4-chloro-N-({4-chloro-3-[(3-chloro-5-cyanophenyl)oxy]-2-fluorophenyl}methyl)-2-(methylamino)-1H-imidazole-5-carboxamide trifluoroacetate], the IC50 is under 10 nM.

Staying with this assay, now noted: Human immunodeficiency virus 1, HeLa, HeLa-CD4-LTR-β-gal cells, wild type virus; read-out: WTRVA activity level.
For `N#Cc1cc(Cl)cc(Oc2c(Cl)ccc(CNC(=O)c3cc4cccc(O)c4[nH]3)c2F)c1` [Example 32, N-({4-chloro-3-[(3-chloro-5-cyanophenyl)oxy]-2-fluorophenyl}methyl)-7-hydroxy-1H-indole-2-carboxamide], the IC50 lay in the range of 10 to 1000 nM.
For `COc1n[n+]([O-])cc2cc(C(=O)NCc3ccc(Cl)c(Oc4cc(Cl)cc(C#N)c4)c3F)[nH]c12` [Example 82, N-({4-chloro-3-[(3-chloro-5-cyanophenyl)oxy]-2-fluorophenyl}methyl)-7-(methyloxy)-1H-pyrrolo[2,3-d]pyridazine-2-carboxamide 5-oxide trifluoroacetate], the IC50 lay in the range of 10 to 1000 nM.
As to `CN(Cc1ccc(Cl)c(Oc2cc(Cl)cc(C#N)c2)c1F)C(=O)c1ccc[nH]1` [Example 129, N-({4-chloro-3-[(3-chloro-5-cyanophenyl)oxy]-2-fluorophenyl}methyl)-N-methyl-1H-pyrrole-2-carboxamide], the IC50 is under 10 nM.
Take `N#Cc1cc(Cl)cc(Oc2c(Cl)ccc(CNC(=O)c3cc4cc(O)ccc4[nH]3)c2F)c1` [Example 26, N-({4-chloro-3-[(3-chloro-5-cyanophenyl)oxy]-2-fluorophenyl}methyl)-5-hydroxy-1H-indole-2-carboxamide]: the IC50 was under 10 nM.
Consider `CNCC(=O)Nc1ccc2[nH]c(C(=O)NCc3ccc(Cl)c(Oc4cc(Cl)cc(C#N)c4)c3F)cc2c1` [Example 119], for which the IC50 was under 10 nM.
Turning to `CN(Cc1ccc(Cl)c(Oc2cc(Cl)cc(C#N)c2)c1F)C(=O)c1ncc[nH]1` [Example 130, N-({4-chloro-3-[(3-chloro-5-cyanophenyl)oxy]-2-fluorophenyl}methyl)-N-methyl-1H-imidazole-2-carboxamide], the IC50 is under 10 nM.
Still for that read-out and setting: for `N#Cc1cc(Cl)cc(Oc2cc(CNC(=O)c3ccc(S(N)(=O)=O)cc3Cl)ccc2Cl)c1` [Example 4, 4-(aminosulfonyl)-2-chloro-N-({4-chloro-3-[(3-chloro-5-cyanophenyl)oxy]phenyl}methyl)benzamide trifluoroacetate] the value was 10 to 1000 nM; for `N#Cc1cc(Cl)cc(Oc2c(Cl)ccc(CNC(=O)c3cc4cc(OCC[C@H](O)CO)ccc4[nH]3)c2F)c1` [Example 107, N-({4-chloro-3-[(3-chloro-5-cyanophenyl)oxy]-2-fluorophenyl}methyl)-5-{[(3S)-3,4-dihydroxybutyl]oxy}-1H-indole-2-carboxamide], under 10 nM.
Turning to `N#Cc1cc(Cl)cc(Oc2c(Cl)ccc(CNC(=O)c3cccnc3)c2F)c1` [Example 94, N-({4-chloro-3-[(3-chloro-5-cyanophenyl)oxy]-2-fluorophenyl}methyl)-3-pyridinecarboxamide trifluoroacetate], the IC50 lay within 10 to 1000 nM.
`CC(O)CCOc1ccc2[nH]c(C(=O)NCc3ccc(Cl)c(Oc4cc(Cl)cc(C#N)c4)c3F)cc2c1` (stereo not shown) [Example 106, N-({4-chloro-3-[(3-chloro-5-cyanophenyl)oxy]-2-fluorophenyl}methyl)-5-[(3-hydroxybutyl)oxy]-1H-indole-2-carboxamide]: the IC50 was under 10 nM.
For `N#Cc1cc(Cl)cc(Oc2c(Cl)ccc(CNC(=O)c3cc4cc(Cl)ccc4s3)c2F)c1` [Example 51, 5-chloro-N-({4-chloro-3-[(3-chloro-5-cyanophenyl)oxy]-2-fluorophenyl}methyl)-1-benzothiophene-2-carboxamide trifluoroacetate], the IC50 was over 1000 nM.
Take `Cc1nn(-c2ccccc2)nc1C(=O)NCc1ccc(Cl)c(Oc2cc(Cl)cc(C#N)c2)c1F` [Example 96, N-({4-chloro-3-[(3-chloro-5-cyanophenyl)oxy]-2-fluorophenyl}methyl)-5-methyl-2-phenyl-2H-1,2,3-triazole-4-carboxamide trifluoroacetate]: the IC50 lay in the range of 10 to 1000 nM.
Turning to `N#Cc1cc(Cl)cc(Oc2c(Cl)ccc(CNC(=O)c3cc4cc(N)ccc4[nH]3)c2F)c1` [Example 111, 5-amino-N-({4-chloro-3-[(3-chloro-5-cyanophenyl)oxy]-2-fluorophenyl}methyl)-1H-indole-2-carboxamide trifluoroacetate], the IC50 is under 10 nM.
On the same count and under the same terms, for `Cc1cc(C)c(C(=O)NCc2ccc(Cl)c(Oc3cc(Cl)cc(C#N)c3)c2F)[nH]1` [Example 62, N-({4-chloro-3-[(3-chloro-5-cyanophenyl)oxy]-2-fluorophenyl}methyl)-3,5-dimethyl-1H-pyrrole-2-carboxamide trifluoroacetate] the value was under 10 nM; for `N#Cc1cc(Cl)cc(Oc2c(Cl)ccc(CNC(=O)c3cc4cc(NC(=O)c5cccnc5)ccc4[nH]3)c2F)c1` [Example 115, N-({4-chloro-3-[(3-chloro-5-cyanophenyl)oxy]-2-fluorophenyl}methyl)-5-[(3-pyridinylcarbonyl)amino]-1H-indole-2-carboxamide], under 10 nM; for `N#Cc1cc(Cl)cc(Oc2c(Cl)ccc(CNC(=O)c3cn(C(c4ccccc4)(c4ccccc4)c4ccccc4)cn3)c2F)c1` [Example 83, N-({4-chloro-3-[(3-chloro-5-cyanophenyl)oxy]-2-fluorophenyl}methyl)-1-(triphenylmethyl)-1H-imidazole-4-carboxamide], over 1000 nM.
On to `N#Cc1cc(Cl)cc(Oc2c(Cl)ccc(CNC(=O)c3cc4cc(OC[C@H]5CNCCO5)ccc4[nH]3)c2F)c1` [Example 24, N-({4-Chloro-3-[(3-chloro-5-cyanophenyl)oxy]-2-fluorophenyl}methyl)-5-{[(2R)-2-morpholinylmethyl]oxy}-indole-2-carboxamide], for which the IC50 was under 10 nM.
On to `N#Cc1cc(Cl)cc(Oc2c(Cl)ccc(CNC(=O)c3cc4ccc(OCc5ccccc5)cc4[nH]3)c2F)c1` [Example 43, N-({4-chloro-3-[(3-chloro-5-cyanophenyl)oxy]-2-fluorophenyl}methyl)-6-[(phenylmethyl)oxy]-1H-indole-2-carboxamide], for which the IC50 is 10 to 1000 nM.
Turning to `COC(=O)c1ccc(C(=O)NCc2ccc(Cl)c(Oc3cc(Cl)cc(C#N)c3)c2F)cc1` [Example 15, Methyl 4-{[({4-chloro-3-[(3-chloro-5-cyanophenyl)oxy]-2-fluorophenyl}methyl)amino]carbonyl}benzoate], the IC50 is 10 to 1000 nM.
Take `Cn1c(C(=O)NCc2ccc(Cl)c(Oc3cc(Cl)cc(C#N)c3)c2F)cc2ccccc21` [Example 45, N-({4-chloro-3-[(3-chloro-5-cyanophenyl)oxy]-2-fluorophenyl}methyl)-1-methyl-1H-indole-2-carboxamide]: the IC50 is 10 to 1000 nM.
